Experimental findings from PubChem BioAssay (NCI) are described below.

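Assay format: 96-well plates, 48-hour exposure. TGI is the concentration that stops growth completely.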

Holding throughout (test): NCI anticancer screen, dose series, 48 h
In assay [1] the test system is SF-295 CNS.
Assay [2] concerns HOP-62 NSCLC.
Assay [3] has as its system RPMI-8226 leukemia.
Assay [4] has as its system MDA-MB-435.
In assay [5] the test system is SN12C renal.
Assay [6] has as its system MOLT-4 leukemia.

Regarding `CC1=NN(c2nc(N)nc(C/C(N)=N/O)n2)C(C)(C)C1`, the TGI in assay [1], in assay [2], in assay [3], in assay [4], in assay [5] and in assay [6] was above 100 µM in each case.
Consider `CC(C)Oc1cccc(N2C(=NCCc3c[nH]c4ccccc34)Nc3ccncc3S2(=O)=O)c1`, for which the TGI in assay [1], in assay [2], in assay [3], in assay [4], in assay [5] and in assay [6] was above 100 µM each time.
As for `CC1CN(c2cc3c(cc2F)c(=O)c(C(=O)O)cn3-c2ccc(F)cn2)CC(C)N1` (centres undefined), the TGI in assay [1], in assay [2], in assay [3], in assay [4], in assay [5] and in assay [6] was above 100 µM throughout.
In the case of `O=C1/C(=C/c2ccc(Oc3ccccc3)cc2)N=C(c2ccccc2)N1c1ccc(S(=O)(=O)Nc2nccs2)cc1`, the TGI is 85.5 µM in assay [1]; 79.4 µM in assay [2]; 32.3 µM in assay [3]; 6.86 µM in assay [4]; above 100 µM in assay [5]; 71.2 µM in assay [6].
For the molecule `NC(=O)SCCC(N)C(=O)O` (centres undefined), the TGI in assay [1], in assay [2], in assay [3], in assay [4], in assay [5] and in assay [6] was above 100 µM throughout.
`CCN(CC)C(=S)SC(C(=O)Nc1nnc(-c2ccccc2)o1)c1ccccc1` (centres undefined): the TGI in assay [1] is above 100 µM; in assay [2], above 100 µM; in assay [3] it was above 100 µM; in assay [4] it was 34.8 µM; in assay [5] it was 32.3 µM; in assay [6], above 100 µM.
Consider `COc1nc2c(c(=O)n1C)N=C(c1ccccc1)[C@H](C(CC(=O)c1ccccc1)c1ccccc1)C(c1ccccc1)N2` (some centres undefined), for which the TGI in assay [1] is above 100 µM; in assay [2] it was above 100 µM; in assay [3], above 100 µM; in assay [4], above 100 µM; in assay [5], above 100 µM; in assay [6] it was 57.1 µM.
`CC1(c2ccc(Cl)s2)CC(c2ccc(Cl)s2)=C(C#N)C(=C(C#N)C#N)N1` (centres undefined): the TGI in assay [1] is 29.8 µM; in assay [2], 36 µM; in assay [3] it was above 100 µM; in assay [4], 35.1 µM; in assay [5] it was 45.7 µM; in assay [6] it was above 100 µM.
For the molecule `CCN(CC)c1ccc(/C=C/C(=O)c2cc(C(C)(C)C)c(O)c(C(C)(C)C)c2)cc1`, the TGI is 7.98 µM in assay [1]; above 100 µM in assay [2]; 38.8 µM in assay [3]; 13.3 µM in assay [4]; above 84 µM in assay [5]; above 100 µM in assay [6].
Turning to `O=C1NNC2NC(=O)C3(NN2C1=O)c1ccccc1-c1ccccc13` (centres undefined), the TGI in assay [1], in assay [2], in assay [4] and in assay [5] was above 100 µM throughout.
Consider `O=C1NC(N2CCCCC2)=N/C1=C\c1ccc(Cl)cc1`, for which the TGI in assay [1], in assay [2], in assay [3], in assay [4], in assay [5] and in assay [6] was above 100 µM throughout.
Consider `OC(c1ccc2c(c1)OCO2)c1ccc2c(c1)OCO2`, for which the TGI in assay [1], in assay [2], in assay [3], in assay [4], in assay [5] and in assay [6] was above 100 µM throughout.
As to `CCOC(OCC)N1C(=O)C2(C(OCC)OCC)CC3C(OC(=O)N3N)c3cccc1c32` (centres undefined), the TGI in assay [1], in assay [2], in assay [3], in assay [4], in assay [5] and in assay [6] was above 100 µM each time.
Regarding `CN1C(=O)C(O)CC1c1ccccc1C(F)(F)F` (centres undefined), the TGI in assay [1], in assay [2], in assay [3], in assay [4], in assay [5] and in assay [6] was above 100 µM in each case.
Regarding `CCOC(=O)c1cc(Br)c(-c2cc(C)no2)[nH]1`, the TGI is above 100 µM in assay [1]; above 100 µM in assay [3]; 38.8 µM in assay [4]; above 100 µM in assay [5]; above 100 µM in assay [6].
For the molecule `CN(C(=O)C1=CCC2(CC1)OCCO2)c1ccccc1I`, the TGI in assay [1], in assay [2], in assay [3], in assay [4], in assay [5] and in assay [6] was above 100 µM in each case.
On to `CC(=O)OCC(C)(COC(C)=O)N1C(=O)C2C3c4ccccc4C(c4ccccc43)C2C1=O` (centres undefined), for which the TGI in assay [1], in assay [3], in assay [4] and in assay [6] was above 100 µM in each case.
Regarding `Clc1ccc(OCc2nnc3sc(-c4ccc(-c5ccc(Cl)cc5Cl)o4)nn23)cc1`, the TGI in assay [1], in assay [2], in assay [3], in assay [4], in assay [5] and in assay [6] was above 100 µM in each case.
For `c1ccc(C(=NCCC2CNc3ccccc32)c2ccccc2)cc1` (centres undefined), the TGI in assay [1], in assay [2], in assay [3], in assay [4] and in assay [6] was above 100 µM in each case.
For the molecule `CCS(=O)(=O)CCn1c(=O)c2c(ncn2C)n(C)c1=O`, the TGI in assay [1], in assay [2], in assay [3], in assay [4], in assay [5] and in assay [6] was above 100 µM in each case.
